Read-outs that look alike come from different tables or passages of the source.
How the values were obtained:
MIA PaCa-2 tumors = format: in vivo, mice; conditions: mg/kg/day: PM00104 0.90 IV
Description: (§1) Female athymic nude mice (Harlan Sprague Dawley, Madison, Wis.) were utilized for all experiments. Animals were housed in ventilated rack caging with food and water ad libitum. The mice were acclimated for at least 5 days prior to tumor implantation with a tumor cell suspension.
The tumor model used in these studies was MIAPaCA-2 cell line, which was obtained from the ATCC (Manassas, Va.).
Each animal was implanted subcutaneously (SC) on the right flank, using a trochar, with 1×10^7 MIAPaCA-2 cells, from in vitro passage 18, in a 0.2 mL suspension of 50% Matrigel/50% serum free medium, without antibiotics. Matrigel is a biological extracellular matrix that is liquid at 4° C. and solid at 37° C., and it promotes tumor growth by maintaining the cells in close association in a localized area. Bacterial cultures were performed on aliquots of the cells prepared for implantation.
Tumor measurements were determined by using Vernier calipers. The formula to calculate volume for a prolate ellipsoid was used to estimate tumor volume (mm^3) from 2-dimensional tumor measurements: Tumor volume (mm^3)=[L×W^2]÷2, where L is the length and it is the longest diameter in mm, and W is the width and it is the shortest diameter in mm of a tumor. Assuming unit density, volume was converted to weight (i.e., 1 mm^3=1 mg).
Treatments were initiated on DPI (Day Post Implantation) 13. In these experiments, the combination therapy groups were treated by co-administering the two drugs at the same time, with no attempt to sequence the treatments.
(§2) Tumor size measurements were recorded twice weekly from the treatment initiation until the termination of the study.
(§3) Mean, standard deviation and standard error of the mean were determined for tumor volume for all animal groups at all assessments. Student's t test was performed on tumor volumes at each measurement day, including at the end of the study, to determine whether there were any statistically significant differences between combination treatment groups and single monotherapy treatment groups.
The definition and criteria for the evaluation of potentiation and the degree of additivity for the combination therapy were as follows:
Additivity was determined as discussed above by comparing the % of tumor growth inhibition of the monotherapy groups versus those of the combination group as follows: • 1. Determine the % of tumor growth inhibition, as 100-% T/C, for each of the drugs administered as monotherapy at the doses used in the combinations. % T/C was obtained by comparing the mean tumor weight in the treatment groups (T) to the mean tumor weight in the control group (C) (T/C×100%). • 2. The two scores were added together to determine the “expected response” if each agent produced the same response as it did when administered as monotherapy. • 3. This “expected response” was subtracted from the % of tumor growth inhibition determined for the combination therapy group: • a. […] If the resulting number was close to zero, the effect of combining the two drugs was determined as additive. • c.

[1] = system: NCI-H460 (lung cancer) cell line; assay: IC50 determination, MIT (tetrazolium) assay, 72 h (Example 18); format: cell-based, human; conditions: NCI-H460, 72 hours of drug exposure
Procedure: (§4) Before plating, cell cultures were trypsinized and cell number estimated using an automated flow cytometer.
(§5) Cells were harvested and seeded in 96 well microtiter plates at the appropriate cell density (5,000-10,000 cells) in 150 μL of media and incubated for 24 hours to allow the cells to attach before drug addition.
(§6) After the incubation period (72 hours), 50 μL of MIT solution was added to each microtiter well and incubated for further 8 hours at 37° C. The culture medium was then removed and 50 μl, of DMSO were added to dissolve the MIT crystals. Optical densities were read at 540 nm on spectrophotometer microplate reader.
(§7) IC50 values were calculated from an average of two to four assays for each of the test agents.

[2] = system: A-549 (lung cancer) cell line; assay: as above; format: cell-based, human
Procedure: as §4, §5, §6, §7

Hs746T tumors = format: in vivo, mice; conditions: mg/kg/day: PM00104 0.90 IV, cisplatin 5 IP, paclitaxel 10 IP
Description: as §1, with “suspension. The Vehicle Control group contained 11 mice, groups 2-4 contained 7 mice and the rest of groups contained 8 mice.” for “suspension.”
The tumor model used in these studies was Hs746T cell line, which was obtained from the ATCC (Manassas, Va.).
Hs746T cells were grown in DMEM supplemented with 10% FBS, 1.5 g/L sodium bicarbonate, 4.5 g/L glucose, and 4 mM L-glutamine. Each animal was implanted SC on the right flank, using a trochar, with 5×10^6 Hs746T cells, from in vitro passage 18, in a 0.2 mL suspension of 50% Matrigel and 50% serum free medium, without antibiotics. Bacterial cultures were performed on aliquots of the cells prepared for implantation.
Treatments were initiated on DPI 16.
as §2, §3

[3] = day 13, gemcitabine 140 IP, erlotinib 100 PO
[4] = day 15, gemcitabine 140 IP, erlotinib 100 PO
[5] = day 19, gemcitabine 140 IP, erlotinib 100 PO
[6] = day 22, gemcitabine 140 IP, erlotinib 100 PO
[7] = day 27, gemcitabine 140 IP, erlotinib 100 PO
[8] = day 29, gemcitabine 140 IP, erlotinib 100 PO
[9] = day 33, gemcitabine 140 IP, erlotinib 100 PO
[10] = day 36, gemcitabine 140 IP, erlotinib 100 PO

| Structure (SMILES) | % Inhibition (MIA PaCa-2 tumors; [3]) [%] | % T/C on day (MIA PaCa-2 tumors; [3]) [%] | % Inhibition (MIA PaCa-2 tumors; [4]) [%] | % T/C on day (MIA PaCa-2 tumors; [4]) [%] | % Inhibition (MIA PaCa-2 tumors; [5]) [%] | % Inhibition (MIA PaCa-2 tumors; [6]) [%] | % T/C on day (MIA PaCa-2 tumors; [6]) [%] | % T/C on day (MIA PaCa-2 tumors; [7]) [%] | % Inhibition (MIA PaCa-2 tumors; [8]) [%] | % T/C on day (MIA PaCa-2 tumors; [8]) [%] | % T/C on day (MIA PaCa-2 tumors; [9]) [%] | % Inhibition (MIA PaCa-2 tumors; [10]) [%] | % T/C on day (MIA PaCa-2 tumors; [10]) [%] | IC50 ([1]; Homo sapiens) [nM] | IC50 ([2]; Homo sapiens, A549, 72 h) [nM] | % Inhibition (Hs746T tumors; day 16) [%] | % T/C on day (Hs746T tumors; day 16) [%] | % Inhibition (Hs746T tumors; day 20) [%] | % T/C on day (Hs746T tumors; day 20) [%] | % Inhibition (Hs746T tumors; day 23) [%] | also measured |
| --- | --- | --- | --- | --- | --- | --- | --- | --- | --- | --- | --- | --- | --- | --- | --- | --- | --- | --- | --- | --- | --- |
| C#Cc1cccc(Nc2ncnc3cc(OCCOC)c(OCCOC)cc23)c1 [erlotinib] | −3.3 | 103.3 | −15.4 | 115.4 | −22.5 | 3.6 | 96.4 | 96.0 | 3.7 | 96.4 | 102.7 | −6.0 | 106.0 | – | – | – | – | – | – | – | % Inhibition (MIA PaCa-2 tumors; day 13, erlotinib 50 PO): −1.5%; % T/C on day (MIA PaCa-2 tumors; day 13, erlotinib 50 PO): 101.5%; % Inhibition (MIA PaCa-2 tumors; day 15, erlotinib 50 PO): 3.3%; % T/C on day (MIA PaCa-2 tumors; day 15, erlotinib 50 PO): 96.7%; % Inhibition (MIA PaCa-2 tumors; day 19, erlotinib 50 PO): −13.2%; % T/C on day (MIA PaCa-2 tumors; day 19, erlotinib 50 PO): 113.2%; % Inhibition (MIA PaCa-2 tumors; day 22, erlotinib 50 PO): −4.4%; % T/C on day (MIA PaCa-2 tumors; day 22, erlotinib 50 PO): 104.4%; % Inhibition (MIA PaCa-2 tumors; day 27, erlotinib 50 PO): −48.6%; % T/C on day (MIA PaCa-2 tumors; day 27, erlotinib 50 PO): 148.6%; % Inhibition (MIA PaCa-2 tumors; [7]): 4.0%; % Inhibition (MIA PaCa-2 tumors; day 29, erlotinib 50 PO): −32.0%; % T/C on day (MIA PaCa-2 tumors; day 29, erlotinib 50 PO): 132.0%; % Inhibition (MIA PaCa-2 tumors; day 33, erlotinib 50 PO): −15.4%; % T/C on day (MIA PaCa-2 tumors; day 33, erlotinib 50 PO): 115.3%; % Inhibition (MIA PaCa-2 tumors; [9]): −2.7%; % Inhibition (MIA PaCa-2 tumors; day 36, erlotinib 50 PO): −17.7%; % T/C on day (MIA PaCa-2 tumors; day 36, erlotinib 50 PO): 117.7% |
| COc1c(C)cc2c(c1O)[C@@H]1[C@@H]3Cc4c(OC(C)=O)c(C)c5c(c4[C@H](CNC(=O)/C=C/c4cccc(C(F)(F)F)c4)N3[C@@H](O)[C@H](C2)N1C)OCO5 [PM00104] | 0.9 | 99.1 | 12.9 | 87.1 | 22.8 | 39.2 | 60.8 | 69.2 | 40.0 | 60.0 | 63.9 | 43.4 | 56.6 | 7.2 | 7.2 | 2.0 | 98.0 | 34.4 | 65.6 | 49.7 | % Inhibition (MIA PaCa-2 tumors; day 13, erlotinib 50 PO): 0.9%; % Inhibition (MIA PaCa-2 tumors; day 15, erlotinib 50 PO): 12.9%; % Inhibition (MIA PaCa-2 tumors; day 19, erlotinib 50 PO): 22.8%; % T/C on day (MIA PaCa-2 tumors; [5]): 77.2%; % Inhibition (MIA PaCa-2 tumors; day 22, erlotinib 50 PO): 39.2%; % Inhibition (MIA PaCa-2 tumors; day 27, erlotinib 50 PO): 30.8%; % Inhibition (MIA PaCa-2 tumors; [7]): 30.8%; % Inhibition (MIA PaCa-2 tumors; day 29, erlotinib 50 PO): 40.0%; % Inhibition (MIA PaCa-2 tumors; day 33, erlotinib 50 PO): 36.1%; % Inhibition (MIA PaCa-2 tumors; [9]): 36.1%; % Inhibition (MIA PaCa-2 tumors; day 36, erlotinib 50 PO): 43.4%; % T/C on day (Hs746T tumors; day 23): 50.3%; % Inhibition (Hs746T tumors; day 26): 57.2%; % T/C on day (Hs746T tumors; day 26): 42.8%; % Inhibition (Hs746T tumors; day 29): 59.1%; % T/C on day (Hs746T tumors; day 29): 40.9%; % Inhibition (Hs746T tumors; day 33): 49.8%; % T/C on day (Hs746T tumors; day 33): 50.2%; % Inhibition (Hs746T tumors; day 36): 31.4%; % T/C on day (Hs746T tumors; day 36): 68.6% |
| N.N.[Cl][Pt][Cl] [Cisplatin, cisplatin] | – | – | – | – | – | – | – | – | – | – | – | – | – | – | – | 3.2 | 96.8 | 39.5 | 60.5 | 48.3 | IC50 [1]: 25000 nM; IC50 ([2]; A-549, 72 hours of drug exposure): 50000 nM; % T/C on day (Hs746T tumors; day 23): 51.7%; % Inhibition (Hs746T tumors; day 26): 55.8%; % T/C on day (Hs746T tumors; day 26): 44.2%; % Inhibition (Hs746T tumors; day 29): 56.7%; % T/C on day (Hs746T tumors; day 29): 43.3%; % Inhibition (Hs746T tumors; day 33): 53.3%; % T/C on day (Hs746T tumors; day 33): 46.7%; % Inhibition (Hs746T tumors; day 36): 53.7%; % T/C on day (Hs746T tumors; day 36): 46.3% |
| CC(=O)O[C@H]1C(=O)[C@@]2(C)[C@H]([C@H](OC(=O)c3ccccc3)[C@]3(O)C[C@H](OC(=O)[C@H](O)[C@@H](NC(=O)c4ccccc4)c4ccccc4)C(C)=C1C3(C)C)[C@]1(OC(C)=O)CO[C@@H]1C[C@@H]2O [paclitaxel] | – | – | – | – | – | – | – | – | – | – | – | – | – | 12 | 47 | 3.6 | 96.4 | 36.7 | 63.3 | 52.3 | % T/C on day (Hs746T tumors; day 23): 47.7%; % Inhibition (Hs746T tumors; day 26): 65.3%; % Inhibition (Hs746T tumors; day 29): 78.6%; % T/C on day (Hs746T tumors; day 29): 21.4%; % Inhibition (Hs746T tumors; day 33): 76.8%; % T/C on day (Hs746T tumors; day 33): 23.2%; % Inhibition (Hs746T tumors; day 36): 69.9%; % T/C on day (Hs746T tumors; day 36): 30.1% |
| Nc1ccn([C@@H]2O[C@H](CO)[C@@H](O)C2(F)F)c(=O)n1 [Gemcitabine, gemcitabine] | 0.0 | 100.0 | −5.7 | 105.7 | 3.0 | 14.5 | 85.5 | 89.5 | 13.7 | 86.3 | 87.7 | −0.3 | 100.3 | 1 | 0.5 | – | – | – | – | – | % T/C on day (MIA PaCa-2 tumors; [5]): 97.0% |

Reference: US20110070232A1, “Combination Therapy with an Antitumor Alkaloid” (Pharma Mar, S.A., priority 2008, published 2011)
